Test results as given in patent US10669289B2, “Boronic acid derivatives” (MERCK PATENT GMBH, priority 2014, dated 2020).

Assays:
[1] = molecular target: human immuno proteasome (LMP7) (Homo sapiens (Human), UniProt P28062); test: Determination of LMP7 activity (fluorescence intensity assay, Suc-LLVY-AMC); format: biochemical
Protocol: Determination of LMP7 Activity:
Measurement of LMP7 inhibition is performed in 384 well format based on fluorescence intensity assay.
(§1) Purified human immuno proteasome (0.25 nM) and serial diluted compounds in DMSO (range of concentrations from 30 μM to 15 pM) or controls are incubated for 20 minutes or 120 minutes (long incubation) at 25° C. in assay buffer containing 50 mM Tris pH 7.4, 0.03% SDS, 1 mM EDTA and 1% DMSO. The reaction is initiated by the addition of the fluorogenic peptide substrate, Suc-LLVY-AMC (Bachem 1-1395), at a concentration of 40 μM. After 60 minutes of incubation at 37° C., fluorescence intensity is measured at λex=350 nm and λem=450 nm with a fluorescence reader (Perkin Elmer Envision reader or equivalent).
(§2) Unless indicated otherwise the results are obtained after incubation for 20 minutes.

[2] = molecular target: human constitutive proteasome (Beta5) (Homo sapiens (Human), UniProt P28074); test: Determination of Beta5 activity (fluorescence intensity assay, Suc-LLVY-AMC); format: biochemical
Protocol: Determination of Beta5 Activity:
Measurement of Beta5 inhibition is performed in 384 well format based on fluorescence intensity assay.
as §1, with “constitutive” for “immuno”, “(1.25” for “(0.25”
as §2

[3] = LMP7 versus Beta5, long incubation (120 min)
[4] = LMP7 versus Beta5, incubation for 20 minutes

**Q.** What does the source list for C=CC(=O)N(CC(=O)N[C@@H](Cc1ccsc1)B(O)O)c1cc(Cl)cc(Cl)c1 [Compound No. 95, [(1R)-1-[[2-(3,5-dichloro-N-prop-2-enoyl-anilino)acetyl]amino]-2-(3-thienyl)ethyl]boronic Acid]?
**A.** Selectivity LMP7 vs Beta5 [1, 3]: +++++ (Selectivity ≥ 150); IC50 ([1]; long incubation (120 min)): < 50 nM; IC50 ([2]; long incubation (120 min)): > 5000 nM

**Q.** C=CC(=O)N(CC(=O)N[C@@H](C[C@@H]1COc2ccccc21)B(O)O)c1ccccc1F [Compound No. 100, [(1R)-2-[(3S)-2,3-dihydrobenzofuran-3-yl]-1-[[2-(2-fluoro-N-prop-2-enoyl-anilino)acetyl]amino]ethyl]boronic Acid] was tested. Which “Selectivity LMP7 vs Beta5” value [1, 3] did it give?
**A.** +++++ (Selectivity ≥ 150)

**Q.** What about the IC50 ([1]; long incubation (120 min)) of the same compound?
**A.** < 50 nM

**Q.** And the IC50 ([2]; long incubation (120 min))?
**A.** 500 to 5000 nM

**Q.** With C=CC(=O)N(C)CC(=O)N[C@@H](Cc1ccc(C(F)(F)F)cc1C)B(O)O [Compound No. 67, [(1R)-1-[[2-[methyl(prop-2-enoyl)amino]acetyl]amino]-2-[2-methyl-4-(trifluoromethyl)phenyl]ethyl]boronic Acid] as the compound, how does the “Selectivity LMP7 vs Beta5” value [1, 3] read?
**A.** +++++ (Selectivity ≥ 150)

**Q.** What about the IC50 ([1]; long incubation (120 min)) of the same compound?
**A.** < 50 nM

**Q.** What about the IC50 ([2]; long incubation (120 min)) of the same compound?
**A.** > 5000 nM

**Q.** C=CC(=O)N(CC)CC(=O)N[C@@H](Cc1ccc(Cl)cc1Cl)B(O)O [Compound No. 40, [(1R)-2-(2,4-dichlorophenyl)-1-[[2-[ethyl(prop-2-enoyl)amino]acetyl]amino]ethyl]boronic Acid] was tested. Which “Selectivity LMP7 vs Beta5” value [1, 3] did it give?
**A.** +++++ (Selectivity ≥ 150)

**Q.** And the IC50 ([1]; long incubation (120 min))?
**A.** 50 to 500 nM

**Q.** What about the IC50 ([2]; long incubation (120 min)) of the same compound?
**A.** > 5000 nM

**Q.** How did the “Selectivity LMP7 vs Beta5” value [1, 3] turn out when C=CC(=O)N1CCC[C@@H]1C(=O)N[C@@H](Cc1ccc(Cl)cc1Cl)B(O)O [Compound No. 54, [(1R)-2-(2,4-dichlorophenyl)-1-[[(2R)-1-prop-2-enoylpyrrolidine-2-carbonyl]amino]ethyl]boronic Acid] was run?
**A.** ++ (50 ≤ Selectivity < 70)

**Q.** What about the IC50 ([1]; long incubation (120 min)) of the same compound?
**A.** 500 to 5000 nM

**Q.** What about the IC50 ([2]; long incubation (120 min)) of the same compound?
**A.** > 5000 nM

**Q.** How did the “Selectivity LMP7 vs Beta5” value [1, 4] turn out when “[(1R)-1-[[2-[but-2-ynoyl(propyl)amino]acetyl]amino]-2-(2,4-dimethylphenyl)ethyl]boronic Acid [Compound No. 3]” was run?
**A.** +++ (70 ≤ 100)

**Q.** What about the IC50 ([1]; incubation for 20 minutes) of the same compound?
**A.** 50 to 500 nM

**Q.** What about the IC50 ([2]; incubation for 20 minutes) of the same compound?
**A.** > 5000 nM

**Q.** How did the “Selectivity LMP7 vs Beta5” value [1, 3] turn out when C=CC(=O)N(C)CC(=O)N[C@@H](Cc1ccc2ccccc2c1)B(O)O [Compound No. 82, [(1R)-1-[[2-[methyl(prop-2-enoyl)amino]acetyl]amino]-2-(2-naphthyl)ethyl]boronic Acid] was run?
**A.** +++++ (Selectivity ≥ 150)

**Q.** And the IC50 ([1]; long incubation (120 min))?
**A.** < 50 nM

**Q.** And the IC50 ([2]; long incubation (120 min))?
**A.** 500 to 5000 nM

**Q.** Which results are given for C=CC(=O)N(CC(=O)N[C@@H](Cc1ccsc1)B(O)O)c1cccc(CC)c1 [Compound No. 94, [(1R)-1-[[2-(3-ethyl-N-prop-2-enoyl-anilino)acetyl]amino]-2-(3-thienyl)ethyl]boronic Acid]?
**A.** Selectivity LMP7 vs Beta5 [1, 3]: +++++ (Selectivity ≥ 150); IC50 ([1]; long incubation (120 min)): < 50 nM; IC50 ([2]; long incubation (120 min)): > 5000 nM

**Q.** What does the source list for C=CC(=O)N(CC(=O)N[C@@H](Cc1ccsc1)B(O)O)c1cccc(C(=O)N(C)C)c1 [Compound No. 102, [(1R)-1-[[2-[3-(dimethylcarbamoyl)-N-prop-2-enoyl-anilino]acetyl]amino]-2-(3-thienyl)ethyl]boronic Acid]?
**A.** Selectivity LMP7 vs Beta5 [1, 3]: ++ (50 ≤ Selectivity < 70); IC50 ([1]; long incubation (120 min)): < 50 nM; IC50 ([2]; long incubation (120 min)): 500 to 5000 nM

**Q.** Which “Selectivity LMP7 vs Beta5” value [1, 4] does the source give for C=CC(=O)N(CCC)CC(=O)N[C@@H](Cc1ccc(C)cc1C)B(O)O [Compound No. 6, [(1R)-2-(2,4-dimethylphenyl)-1-[[2-[prop-2-enoyl(propyl)amino]-acetyl]amino]ethyl]boronic Acid] here?
**A.** +++++ (Selectivity ≥ 150)

**Q.** And the IC50 ([1]; incubation for 20 minutes)?
**A.** 50 to 500 nM

**Q.** What about the IC50 ([2]; incubation for 20 minutes) of the same compound?
**A.** > 5000 nM

**Q.** Which results are given for C=CC(=O)N(C)CC(=O)N[C@@H](Cc1ccsc1)B(O)O [Compound No. 75, [(1R)-1-[[2-[methyl(prop-2-enoyl)amino]acetyl]amino]-2-(3-thienyl)ethyl]boronic Acid]?
**A.** Selectivity LMP7 vs Beta5 [1, 3]: +++++ (Selectivity ≥ 150); IC50 ([1]; long incubation (120 min)): 50 to 500 nM; IC50 ([2]; long incubation (120 min)): > 5000 nM

**Q.** Which results are given for C=C(C)C(=O)N(CC)CC(=O)N[C@@H](Cc1ccccc1)B(O)O [Compound No. 28, [(1R)-1-[[2-[ethyl(2-methylprop-2-enoyl)amino]acetyl]amino]-2-phenyl-ethyl]boronic Acid]?
**A.** Selectivity LMP7 vs Beta5 [1, 4]: + (Selectivity < 50); IC50 ([1]; incubation for 20 minutes): 500 to 5000 nM; IC50 ([2]; incubation for 20 minutes): > 5000 nM

**Q.** What does the source list for CCN(CC(=O)N[C@@H](Cc1ccc(C)cc1C)B(O)O)C(=O)/C=C/C(=O)OC [Compound No. 50, [(1R)-2-(2,4-dimethylphenyl)-1-[[2-[ethyl-[(E)-4-methoxy-4-oxo-but-2-enoyl]amino]acetyl]amino]ethyl]boronic Acid]?
**A.** Selectivity LMP7 vs Beta5 [1, 3]: +++++ (Selectivity ≥ 150); IC50 ([1]; long incubation (120 min)): < 50 nM; IC50 ([2]; long incubation (120 min)): > 5000 nM

**Q.** What does the source list for C=CC(=O)N1CCCC[C@@H]1C(=O)N[C@@H](Cc1ccc(C)cc1C)B(O)O [Compound No. 38, [(1R)-2-(2,4-dimethylphenyl)-1-[[(2R)-1-prop-2-enoylpiperidine-2-carbonyl]amino]ethyl]boronic Acid]?
**A.** Selectivity LMP7 vs Beta5 [1, 3]: ++++ (100 ≤ Selectivity < 150); IC50 ([1]; long incubation (120 min)): 50 to 500 nM; IC50 ([2]; long incubation (120 min)): > 5000 nM

**Q.** CCN(CC(=O)N[C@@H](Cc1ccc(C)cc1C)B(O)O)C(=O)C=C(C)C [Compound No. 24, [(1R)-2-(2,4-dimethylphenyl)-1-[[2-[ethyl(3-methylbut-2-enoyl)amino]-acetyl]amino]ethyl]boronic Acid] was tested. Which “Selectivity LMP7 vs Beta5” value [1, 4] did it give?
**A.** ++ (50 ≤ Selectivity < 70)

**Q.** What about the IC50 ([1]; incubation for 20 minutes) of the same compound?
**A.** 50 to 500 nM

**Q.** And the IC50 ([2]; incubation for 20 minutes)?
**A.** 500 to 5000 nM

**Q.** Which “Selectivity LMP7 vs Beta5” value [1, 3] does the source give for C=CC(=O)N(CC(=O)N[C@@H](Cc1ccsc1)B(O)O)C1CC1 [Compound No. 90, [(1R)-1-[[2-[cyclopropyl(prop-2-enoyl)amino]acetyl]amino]-2-(3-thienyl)ethyl]boronic Acid] here?
**A.** +++++ (Selectivity ≥ 150)

**Q.** And the IC50 ([1]; long incubation (120 min))?
**A.** < 50 nM

**Q.** And the IC50 ([2]; long incubation (120 min))?
**A.** > 5000 nM

**Q.** For C=CC(=O)N(CC(=O)N[C@@H](Cc1ccc(C)cc1C)B(O)O)c1ccc(OC(F)(F)F)cc1 [Compound No. 9, [(1R)-2-(2,4-dimethylphenyl)-1-[[2-[N-prop-2-enoyl-4-(trifluoromethoxy)anilino]acetyl]amino]ethyl]boronic Acid], which “Selectivity LMP7 vs Beta5” value [1, 4] is on record?
**A.** +++ (70 ≤ 100)

**Q.** What about the IC50 ([1]; incubation for 20 minutes) of the same compound?
**A.** < 50 nM

**Q.** What about the IC50 ([2]; incubation for 20 minutes) of the same compound?
**A.** 500 to 5000 nM

**Q.** C=CC(=O)N(CC(=O)N[C@@H](Cc1coc2ccccc12)B(O)O)c1ccccc1F [Compound No. 86, [(1R)-2-(benzofuran-3-yl)-1-[[2-(2-fluoro-N-prop-2-enoyl-anilino)acetyl]amino]ethyl]boronic Acid] was tested. Which “Selectivity LMP7 vs Beta5” value [1, 3] did it give?
**A.** +++++ (Selectivity ≥ 150)

**Q.** What about the IC50 ([1]; long incubation (120 min)) of the same compound?
**A.** < 50 nM

**Q.** And the IC50 ([2]; long incubation (120 min))?
**A.** 50 to 500 nM

**Q.** With CCN(CC(=O)N[C@@H](Cc1ccc(C)cc1C)B(O)O)C(=O)/C=C/C(=O)N(C)C [Compound No. 62, [(1R)-1-[[2-[[(E)-4-(dimethylamino)-4-oxo-but-2-enoyl]-ethyl-amino]acetyl]amino]-2-(2,4-dimethylphenyl)ethyl]boronic Acid] as the compound, how does the “Selectivity LMP7 vs Beta5” value [1, 3] read?
**A.** +++++ (Selectivity ≥ 150)

**Q.** What about the IC50 ([1]; long incubation (120 min)) of the same compound?
**A.** 50 to 500 nM

**Q.** And the IC50 ([2]; long incubation (120 min))?
**A.** > 5000 nM

**Q.** For C=CC(=O)N(CC)CC(=O)N[C@@H](Cc1ccccc1)B(O)O [Compound No. 37, [(1R)-1-[[2-[ethyl(prop-2-enoyl)amino]acetyl]amino]-2-phenyl-ethyl]boronic Acid], which “Selectivity LMP7 vs Beta5” value [1, 4] is on record?
**A.** +++ (70 ≤ 100)

**Q.** And the IC50 ([1]; incubation for 20 minutes)?
**A.** 50 to 500 nM

**Q.** What about the IC50 ([2]; incubation for 20 minutes) of the same compound?
**A.** > 5000 nM

**Q.** With C=CS(=O)(=O)N(C)CC(=O)N[C@@H](Cc1ccc(C)cc1C)B(O)O [Compound No. 15, [(1R)-2-(2,4-dimethylphenyl)-1-[[2-[methyl(vinylsulfonyl)amino]-acetyl]amino]ethyl]boronic Acid] as the compound, how does the “Selectivity LMP7 vs Beta5” value [1, 4] read?
**A.** +++ (70 ≤ 100)

**Q.** And the IC50 ([1]; incubation for 20 minutes)?
**A.** < 50 nM

**Q.** What about the IC50 ([2]; incubation for 20 minutes) of the same compound?
**A.** 500 to 5000 nM
